# Assay results published in ChEMBL document CHEMBL1201862, “PubChem BioAssay data set” (2004).
#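 Growth conditions: 96-well plates. Treatment: test compound, 48 hours, 5 concentrations. Analysis: linear interpolation between bracketing concentrations; unreached endpoints set to highest concentration. GI50 is the concentration that inhibits growth by half.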 The source made the active and inactive calls. Rule as the data show it: active = GI50 up to about 1.1 µM and inactive = higher.
# What was measured:
# Test in all cases: inhibition of tumour cell growth, NCI panel, 48 h
# K562 = tested on: K562
# HCT-116 = tested on: HCT-116
# OVCAR-8 = tested on: OVCAR-8
# HL-60 = tested on: HL-60
# UO-31 = tested on: UO-31
# RXF 393 = tested on: RXF 393
# MDA-MB-435 = tested on: MDA-MB-435
# SN12C = tested on: SN12C
# PC-3 = tested on: PC-3
# MCF7 = tested on: MCF7
# RPMI-8226 = tested on: RPMI-8226
# HOP-92 = tested on: HOP-92
# ACHN = tested on: ACHN
# HOP-62 = tested on: HOP-62
# MOLT-4 = tested on: MOLT-4
# SNB-75 = tested on: SNB-75
# BT-549 = tested on: BT-549
# CCRF-CEM = tested on: CCRF-CEM
# EKVX = tested on: EKVX
# OVCAR-3 = tested on: OVCAR-3
# SNB-19 = tested on: SNB-19
# UACC-257 = tested on: UACC-257
# NCI-H23 = tested on: NCI-H23
# CAKI-1 = tested on: CAKI-1
# UACC-62 = tested on: UACC-62
# M14 = tested on: M14
# MDA-MB-231 = tested on: MDA-MB-231
# SK-MEL-28 = tested on: SK-MEL-28
# A549 = tested on: A549
# OVCAR-5 = tested on: OVCAR-5
# HT-29 = tested on: HT-29
# OVCAR-4 = tested on: OVCAR-4
# Malme-3M = tested on: Malme-3M
# 786-0 = tested on: 786-0
# HCT-15 = tested on: HCT-15
# A498 = tested on: A498
# HCC 2998 = tested on: HCC 2998
# IGROV-1 = tested on: IGROV-1
# SR = tested on: SR
# SW-620 = tested on: SW-620
# U-251 = tested on: U-251
# NCI-H460 = tested on: NCI-H460
# NCI-H522 = tested on: NCI-H522
# DU-145 = tested on: DU-145
# COLO 205 = tested on: COLO 205
# KM12 = tested on: KM12
# SF-295 = tested on: SF-295
# SK-MEL-5 = tested on: SK-MEL-5
# TK-10 = tested on: TK-10
# SK-OV-3 = tested on: SK-OV-3
# NCI/ADR-RES = tested on: NCI/ADR-RES
# SF-539 = tested on: SF-539
# T47D = tested on: T47D
# LOX IMVI = tested on: LOX IMVI
# SK-MEL-2 = tested on: SK-MEL-2
# MDA-N = tested on: MDA-N
# SF-268 = tested on: SF-268
# Hs-578T = tested on: Hs-578T
smiles,measurement,setting,value
CCOP(=O)(OCC)/C(F)=C/c1ccc(F)cc1,GI50,K562,> 100 µM (inactive)
same,GI50,HCT-116,> 100 µM (inactive)
same,GI50,OVCAR-8,> 100 µM (inactive)
same,GI50,HL-60,> 100 µM (inactive)
same,GI50,UO-31,> 100 µM (inactive)
same,GI50,RXF 393,> 100 µM (inactive)
same,GI50,MDA-MB-435,> 100 µM (inactive)
same,GI50,SN12C,> 100 µM (inactive)
same,GI50,PC-3,> 100 µM (inactive)
same,GI50,MCF7,> 100 µM (inactive)
same,GI50,RPMI-8226,> 100 µM (inactive)
same,GI50,HOP-92,> 100 µM (inactive)
same,GI50,ACHN,> 100 µM (inactive)
same,GI50,HOP-62,> 100 µM (inactive)
same,GI50,MOLT-4,> 100 µM (inactive)
same,GI50,SNB-75,> 100 µM (inactive)
same,GI50,BT-549,> 100 µM (inactive)
same,GI50,CCRF-CEM,> 100 µM (inactive)
same,GI50,EKVX,> 100 µM (inactive)
same,GI50,OVCAR-3,> 100 µM (inactive)
same,GI50,SNB-19,> 100 µM (inactive)
same,GI50,UACC-257,> 100 µM (inactive)
same,GI50,NCI-H23,> 100 µM (inactive)
same,GI50,CAKI-1,> 100 µM (inactive)
same,GI50,UACC-62,91.2 µM (inactive)
same,GI50,M14,> 100 µM (inactive)
same,GI50,MDA-MB-231,> 100 µM (inactive)
same,GI50,SK-MEL-28,> 100 µM (inactive)
same,GI50,A549,> 100 µM (inactive)
same,GI50,OVCAR-5,> 100 µM (inactive)
same,GI50,HT-29,> 100 µM (inactive)
same,GI50,OVCAR-4,> 100 µM (inactive)
same,GI50,Malme-3M,> 100 µM (inactive)
same,GI50,786-0,> 100 µM (inactive)
same,GI50,HCT-15,> 100 µM
same,GI50,A498,> 100 µM (inactive)
same,GI50,HCC 2998,> 10 µM (inactive)
same,GI50,IGROV-1,> 100 µM (inactive)
same,GI50,SR,> 100 µM (inactive)
same,GI50,SW-620,> 100 µM (inactive)
same,GI50,U-251,> 100 µM (inactive)
same,GI50,NCI-H460,> 100 µM (inactive)
same,GI50,NCI-H522,> 100 µM (inactive)
same,GI50,DU-145,> 100 µM (inactive)
same,GI50,COLO 205,> 100 µM (inactive)
same,GI50,KM12,> 100 µM (inactive)
same,GI50,SF-295,> 100 µM (inactive)
same,GI50,SK-MEL-5,> 100 µM (inactive)
same,GI50,TK-10,> 100 µM (inactive)
same,GI50,SK-OV-3,> 100 µM (inactive)
same,GI50,NCI/ADR-RES,> 100 µM (inactive)
same,GI50,SF-539,> 100 µM (inactive)
same,GI50,T47D,> 100 µM (inactive)
same,GI50,LOX IMVI,> 100 µM (inactive)
same,GI50,SK-MEL-2,> 100 µM (inactive)
same,GI50,MDA-N,> 100 µM (inactive)
same,GI50,SF-268,> 100 µM (inactive)
same,GI50,Hs-578T,> 100 µM (inactive)
CC(=O)Oc1ccc2ccc(=O)oc2c1OC(C)=O,GI50,K562,41.9 µM (inactive)
same,GI50,HCT-116,36.3 µM (inactive)
same,GI50,OVCAR-8,35.4 µM (inactive)
same,GI50,HL-60,17.1 µM (inactive)
same,GI50,UO-31,30.1 µM (inactive)
same,GI50,RXF 393,22.7 µM (inactive)
same,GI50,MDA-MB-435,39.1 µM (inactive)
same,GI50,SN12C,19 µM (inactive)
same,GI50,PC-3,43 µM (inactive)
same,GI50,MCF7,46.3 µM (inactive)
same,GI50,RPMI-8226,28.4 µM (inactive)
same,GI50,HOP-92,64.3 µM (inactive)
same,GI50,ACHN,45.4 µM (inactive)
same,GI50,HOP-62,29.5 µM (inactive)
same,GI50,MOLT-4,33.3 µM (inactive)
same,GI50,SNB-75,66.5 µM (inactive)
same,GI50,BT-549,40 µM (inactive)
same,GI50,CCRF-CEM,10.6 µM (inactive)
same,GI50,EKVX,67.8 µM (inactive)
same,GI50,OVCAR-3,29.9 µM (inactive)
same,GI50,SNB-19,32.6 µM (inactive)
same,GI50,UACC-257,> 100 µM (inactive)
same,GI50,NCI-H23,32 µM (inactive)
same,GI50,CAKI-1,43.6 µM (inactive)
same,GI50,UACC-62,43.9 µM (inactive)
same,GI50,M14,78 µM (inactive)
same,GI50,MDA-MB-231,29.5 µM (inactive)
same,GI50,SK-MEL-28,> 100 µM (inactive)
same,GI50,A549,30.1 µM (inactive)
same,GI50,OVCAR-5,> 100 µM (inactive)
same,GI50,HT-29,> 100 µM (inactive)
same,GI50,OVCAR-4,35 µM (inactive)
same,GI50,Malme-3M,> 100 µM (inactive)
same,GI50,786-0,42.1 µM (inactive)
same,GI50,HCT-15,11.6 µM
same,GI50,A498,> 100 µM (inactive)
same,GI50,HCC 2998,48 µM (inactive)
same,GI50,IGROV-1,57.1 µM (inactive)
same,GI50,SR,28 µM (inactive)
same,GI50,SW-620,37.1 µM (inactive)
same,GI50,U-251,50.2 µM (inactive)
same,GI50,NCI-H460,14.9 µM (inactive)
same,GI50,NCI-H522,39.5 µM (inactive)
same,GI50,DU-145,> 100 µM (inactive)
same,GI50,COLO 205,24.4 µM (inactive)
same,GI50,KM12,44.4 µM (inactive)
same,GI50,SF-295,41.5 µM (inactive)
same,GI50,SK-MEL-5,27.2 µM (inactive)
same,GI50,TK-10,78.2 µM (inactive)
same,GI50,SK-OV-3,73.1 µM (inactive)
same,GI50,NCI/ADR-RES,50.6 µM (inactive)
same,GI50,SF-539,43.4 µM (inactive)
same,GI50,T47D,82.4 µM (inactive)
same,GI50,LOX IMVI,21.3 µM (inactive)
same,GI50,SK-MEL-2,> 100 µM (inactive)
same,GI50,MDA-N,49.8 µM (inactive)
same,GI50,SF-268,27.8 µM (inactive)
same,GI50,Hs-578T,61.9 µM (inactive)
